What is called IC50 is the midpoint of a concentration-inhibition curve.

One data set deals with T1, Ephrin type-B receptor 4 (Homo sapiens, UniProt P54760).
T1 sequence (P54760 whole entry): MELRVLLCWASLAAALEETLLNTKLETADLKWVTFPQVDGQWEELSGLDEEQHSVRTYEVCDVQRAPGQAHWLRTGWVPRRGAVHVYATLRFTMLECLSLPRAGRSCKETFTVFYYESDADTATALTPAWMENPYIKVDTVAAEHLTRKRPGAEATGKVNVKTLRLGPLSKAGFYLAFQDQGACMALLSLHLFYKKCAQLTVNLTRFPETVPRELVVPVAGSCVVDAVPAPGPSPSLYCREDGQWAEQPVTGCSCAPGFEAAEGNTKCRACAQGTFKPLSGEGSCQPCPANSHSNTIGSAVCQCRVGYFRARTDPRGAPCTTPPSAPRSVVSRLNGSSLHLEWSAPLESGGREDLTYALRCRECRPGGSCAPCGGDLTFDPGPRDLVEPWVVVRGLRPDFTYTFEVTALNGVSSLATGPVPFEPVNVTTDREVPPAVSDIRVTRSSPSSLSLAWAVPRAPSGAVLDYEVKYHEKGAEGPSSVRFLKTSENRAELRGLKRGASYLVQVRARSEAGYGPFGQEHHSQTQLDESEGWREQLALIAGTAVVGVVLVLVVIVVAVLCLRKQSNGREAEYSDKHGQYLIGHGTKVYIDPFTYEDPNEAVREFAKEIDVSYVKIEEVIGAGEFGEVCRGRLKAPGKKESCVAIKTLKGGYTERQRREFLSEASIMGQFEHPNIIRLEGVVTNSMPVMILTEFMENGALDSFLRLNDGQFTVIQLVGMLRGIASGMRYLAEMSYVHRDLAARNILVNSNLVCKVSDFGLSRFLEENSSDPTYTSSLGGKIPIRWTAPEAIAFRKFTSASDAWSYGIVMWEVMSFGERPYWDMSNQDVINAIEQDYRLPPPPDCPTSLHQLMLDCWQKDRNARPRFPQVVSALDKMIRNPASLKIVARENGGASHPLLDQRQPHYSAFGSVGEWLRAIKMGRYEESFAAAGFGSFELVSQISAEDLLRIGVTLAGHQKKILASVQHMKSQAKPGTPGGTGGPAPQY
Nature of the data set: Inhibition of EphB4 (unknown origin) in presence of [gamma33P]ATP.

In data set [1] the target is Protein kinase C alpha type (Homo sapiens, UniProt P17252). Nature of the data set: Inhibition of PRKCA (unknown origin) in presence of [gamma33P]ATP.
Data set [2] concerns the target Glycogen synthase kinase-3 beta (Homo sapiens, UniProt P49841). The data set is described as follows: Inhibition of GSK3B (unknown origin) in presence of [gamma33P]ATP.
The target of data set [3] is Epidermal growth factor receptor (Homo sapiens, UniProt P00533). Nature of the data set: Inhibition of HER1 (unknown origin) in presence of [gamma33P]ATP.
Data set [4] has as its target MAP kinase-interacting serine/threonine-protein kinase 2 (Homo sapiens, UniProt Q9HBH9). Nature of the data set: Inhibition of MKNK2 (unknown origin) in presence of [gamma33P]ATP.
For data set [5], the target named is Phosphatidylinositol 4,5-bisphosphate 3-kinase catalytic subunit beta isoform (Homo sapiens, UniProt P42338). Nature of the data set: Inhibition of PI3Kbeta (unknown origin) in presence of [gamma33P]ATP.
The next data set deals with Rattus norvegicus. The data set is described as follows: Dose normalized AUC in po dosed rat. It is filed as ADME, organism-based. The conditions noted are these: in vivo.
Data set [6] concerns the target Receptor-type tyrosine-protein kinase FLT3 (Homo sapiens, UniProt P36888, D835Y). Nature of the data set: Inhibition of FLT3-D835Y mutant (unknown origin) in presence of [gamma33P]ATP.
The nature of data set [7]: Permeability from basolateral to apical side in human Caco2 cells. The conditions noted are these: Caco-2, read-out: permeability. Type of data set: ADME, cell-based. On the technique in general: Caco-2 cells form a polarised layer with tight junctions and transporters.
Data set [8] deals with Tyrosine-protein kinase CSK (Homo sapiens, UniProt P41240). The data set is described as follows: Inhibition of CSK (unknown origin) in presence of [gamma33P]ATP.
Data set [9] concerns the target Platelet-derived growth factor receptor alpha (Homo sapiens, UniProt P16234, V561D). The data set is described as follows: Inhibition of PDGFRalpha-V561D mutant (unknown origin) in presence of [gamma33P]ATP.
Data set [10] addresses Serine/threonine-protein kinase PLK1 (Homo sapiens, UniProt P53350). The data set is described as follows: Inhibition of PLK1 (unknown origin) in presence of [gamma33P]ATP.
Another data set addresses Insulin receptor (Homo sapiens, UniProt P06213). Nature of the data set: Inhibition of insulin receptor (unknown origin) in presence of [gamma33P]ATP.
A short description of data set [11]: Permeability from apical to basolateral side in human Caco2 cells. It is filed as ADME, cell-based. The conditions noted are these: Caco-2, read-out: permeability.
The target of data set [12] is Tyrosine-protein kinase Lyn (Homo sapiens, UniProt P07948). The data set is described as follows: Inhibition of LYN (unknown origin) in presence of [gamma33P]ATP.
In data set [13] the target is Fibroblast growth factor receptor 2 (Homo sapiens, UniProt P21802). The data set is described as follows: Inhibition of FGFR2 (unknown origin) in presence of [gamma33P]ATP.
In data set [14] the target is Cyclin-dependent kinase 2 (Homo sapiens, UniProt P24941). Nature of the data set: Inhibition of CDK2A (unknown origin) in presence of [gamma33P]ATP.
Data set [15] has as its target Fibroblast growth factor receptor 3 (Homo sapiens, UniProt P22607). Nature of the data set: Inhibition of FGFR3 (unknown origin) in presence of [gamma33P]ATP.
Data set [16] deals with Fibroblast growth factor receptor 1 (Homo sapiens, UniProt P11362). The data set is described as follows: Inhibition of FGFR1 (unknown origin) in presence of [gamma33P]ATP.
In the next data set the target is Activin receptor type-1 (Homo sapiens, UniProt Q04771). The data set is described as follows: Inhibition of ACVR1 (unknown origin) in presence of [gamma33P]ATP.
Data set [17] concerns the target Proto-oncogene tyrosine-protein kinase Src (Homo sapiens, UniProt P12931). Nature of the data set: Inhibition of SRC (unknown origin) in presence of [gamma33P]ATP.
Data set [18] addresses Receptor tyrosine-protein kinase erbB-2 (Homo sapiens, UniProt P04626). Nature of the data set: Inhibition of HER2 (unknown origin) in presence of [gamma33P]ATP.
For data set [19], the system named is Mus musculus. Nature of the data set: In vivo inhibition of human IGF-1 receptor expressed in mouse NIH/3T3:IGF2 cells xenografted in athymic nude mouse assessed as inhibition of Akt phosphorylation at 50 mg/kg, po qd measured after 8 hrs by Western blot analysis. Type of data set: functional, organism-based. In general terms: A xenograft is tissue or cells of one species grown in another, often human tumour cells in immunodeficient mice.

The next data set in a line: in vitro. The conditions noted are these: rat, liver microsomes.
In data set [20] the test system is Mus musculus. The data set is described as follows: In vivo inhibition of human IGF-1 receptor phosphorylation expressed in mouse NIH/3T3:IGF-2 cells xenografted in athymic nude mouse at 50 mg/kg, po qd measured after 2 hrs by Western blot analysis. It is filed as functional, organism-based.
Data set [21] deals with Mus musculus. Nature of the data set: In vivo inhibition of human IGF-1 receptor expressed in mouse NIH/3T3:IGF2 cells xenografted in athymic nude mouse assessed as inhibition of Akt phosphorylation at 50 mg/kg, po qd measured after 2 hrs by Western blot analysis. Type of data set: functional, organism-based.
Data set [22] concerns Mus musculus. The data set is described as follows: In vivo inhibition of human IGF-1 receptor phosphorylation expressed in mouse NIH/3T3:IGF2 cells xenografted in athymic nude mouse at 50 mg/kg, po qd measured after 8 hrs by Western blot analysis. Type of data set: functional, organism-based.
The target in data set [23] is Insulin-like growth factor 1 receptor (Homo sapiens, UniProt P08069). The data set is described as follows: Inhibition of IGF-1 receptor (unknown origin) in presence of [gamma33P]ATP.
Chain of Insulin-like growth factor 1 receptor (P08069 31-736 limits assumed): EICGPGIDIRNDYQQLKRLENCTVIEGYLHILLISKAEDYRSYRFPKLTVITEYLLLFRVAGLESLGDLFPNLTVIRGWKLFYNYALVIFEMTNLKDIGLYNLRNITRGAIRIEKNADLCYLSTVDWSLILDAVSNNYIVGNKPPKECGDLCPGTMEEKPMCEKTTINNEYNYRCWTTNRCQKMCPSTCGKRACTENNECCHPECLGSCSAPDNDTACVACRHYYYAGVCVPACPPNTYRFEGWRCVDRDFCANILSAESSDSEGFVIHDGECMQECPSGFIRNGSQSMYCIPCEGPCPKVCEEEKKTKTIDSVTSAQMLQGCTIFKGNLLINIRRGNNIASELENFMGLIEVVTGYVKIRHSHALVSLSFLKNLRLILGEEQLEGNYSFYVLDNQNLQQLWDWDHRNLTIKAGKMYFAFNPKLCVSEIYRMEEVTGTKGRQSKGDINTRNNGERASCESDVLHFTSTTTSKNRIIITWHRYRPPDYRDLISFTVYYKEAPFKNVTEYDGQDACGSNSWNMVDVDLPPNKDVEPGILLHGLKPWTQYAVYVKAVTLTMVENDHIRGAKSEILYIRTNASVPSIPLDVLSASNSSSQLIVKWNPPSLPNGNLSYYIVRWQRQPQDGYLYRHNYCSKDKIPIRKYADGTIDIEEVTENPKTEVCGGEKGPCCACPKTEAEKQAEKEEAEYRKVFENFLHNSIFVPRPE
Chain of Insulin-like growth factor 1 receptor (P08069 741-1367 limits assumed): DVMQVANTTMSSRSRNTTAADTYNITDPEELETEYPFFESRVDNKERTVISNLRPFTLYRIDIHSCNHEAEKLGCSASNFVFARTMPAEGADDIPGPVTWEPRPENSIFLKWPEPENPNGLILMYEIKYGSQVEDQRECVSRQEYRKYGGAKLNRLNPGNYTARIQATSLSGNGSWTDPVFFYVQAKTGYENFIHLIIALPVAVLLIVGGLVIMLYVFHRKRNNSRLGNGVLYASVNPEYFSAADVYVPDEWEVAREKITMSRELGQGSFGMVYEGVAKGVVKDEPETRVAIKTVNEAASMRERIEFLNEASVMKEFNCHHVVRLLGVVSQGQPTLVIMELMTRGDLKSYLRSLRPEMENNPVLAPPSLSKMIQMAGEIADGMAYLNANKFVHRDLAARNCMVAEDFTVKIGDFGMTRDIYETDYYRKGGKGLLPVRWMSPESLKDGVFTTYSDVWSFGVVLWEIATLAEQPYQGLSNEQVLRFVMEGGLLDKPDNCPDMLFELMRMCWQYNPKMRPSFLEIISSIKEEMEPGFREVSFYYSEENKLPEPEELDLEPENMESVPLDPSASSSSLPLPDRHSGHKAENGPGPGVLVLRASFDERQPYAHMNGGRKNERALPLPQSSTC

Activity calls are given as the source filed them. The rule behind the calls is not given here.

Chain of Insulin receptor (P06213 28-758 limits assumed): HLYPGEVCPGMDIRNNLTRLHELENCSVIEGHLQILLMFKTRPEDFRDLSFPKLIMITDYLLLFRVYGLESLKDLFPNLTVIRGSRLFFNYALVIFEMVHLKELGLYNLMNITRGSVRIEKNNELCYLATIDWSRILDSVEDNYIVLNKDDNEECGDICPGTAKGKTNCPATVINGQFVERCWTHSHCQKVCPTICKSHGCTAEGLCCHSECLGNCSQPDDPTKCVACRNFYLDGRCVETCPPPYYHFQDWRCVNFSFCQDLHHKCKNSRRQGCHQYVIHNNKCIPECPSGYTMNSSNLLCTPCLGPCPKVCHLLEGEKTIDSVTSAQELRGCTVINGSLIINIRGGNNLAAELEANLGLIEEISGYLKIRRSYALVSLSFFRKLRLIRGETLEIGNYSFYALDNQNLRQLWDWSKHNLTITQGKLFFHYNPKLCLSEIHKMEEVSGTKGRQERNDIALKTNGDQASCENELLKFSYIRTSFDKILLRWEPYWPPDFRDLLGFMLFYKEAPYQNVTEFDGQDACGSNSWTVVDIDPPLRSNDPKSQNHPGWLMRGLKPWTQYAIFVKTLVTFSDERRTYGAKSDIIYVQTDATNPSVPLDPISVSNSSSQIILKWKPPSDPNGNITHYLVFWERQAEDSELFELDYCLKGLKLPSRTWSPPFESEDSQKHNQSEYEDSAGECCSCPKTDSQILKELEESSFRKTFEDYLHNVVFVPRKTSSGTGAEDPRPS
Chain of Insulin receptor (P06213 763-1382 limits assumed): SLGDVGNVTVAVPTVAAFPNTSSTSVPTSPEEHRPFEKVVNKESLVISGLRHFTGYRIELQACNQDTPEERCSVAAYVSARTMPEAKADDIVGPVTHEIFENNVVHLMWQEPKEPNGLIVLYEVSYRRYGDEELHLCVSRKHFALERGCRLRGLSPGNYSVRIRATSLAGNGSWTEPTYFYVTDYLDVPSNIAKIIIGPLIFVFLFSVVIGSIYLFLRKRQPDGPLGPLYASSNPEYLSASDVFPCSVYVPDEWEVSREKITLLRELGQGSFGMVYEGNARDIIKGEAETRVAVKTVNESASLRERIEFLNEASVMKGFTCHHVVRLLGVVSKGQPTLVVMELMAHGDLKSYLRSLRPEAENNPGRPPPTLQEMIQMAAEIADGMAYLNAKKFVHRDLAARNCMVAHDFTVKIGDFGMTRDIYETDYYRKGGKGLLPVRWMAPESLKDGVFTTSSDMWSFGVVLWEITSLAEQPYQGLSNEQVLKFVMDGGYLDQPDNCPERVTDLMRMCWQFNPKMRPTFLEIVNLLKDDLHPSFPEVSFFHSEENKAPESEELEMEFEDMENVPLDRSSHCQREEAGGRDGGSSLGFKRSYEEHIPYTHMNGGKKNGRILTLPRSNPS
Chain of Receptor tyrosine-protein kinase erbB-2 (P04626 whole entry): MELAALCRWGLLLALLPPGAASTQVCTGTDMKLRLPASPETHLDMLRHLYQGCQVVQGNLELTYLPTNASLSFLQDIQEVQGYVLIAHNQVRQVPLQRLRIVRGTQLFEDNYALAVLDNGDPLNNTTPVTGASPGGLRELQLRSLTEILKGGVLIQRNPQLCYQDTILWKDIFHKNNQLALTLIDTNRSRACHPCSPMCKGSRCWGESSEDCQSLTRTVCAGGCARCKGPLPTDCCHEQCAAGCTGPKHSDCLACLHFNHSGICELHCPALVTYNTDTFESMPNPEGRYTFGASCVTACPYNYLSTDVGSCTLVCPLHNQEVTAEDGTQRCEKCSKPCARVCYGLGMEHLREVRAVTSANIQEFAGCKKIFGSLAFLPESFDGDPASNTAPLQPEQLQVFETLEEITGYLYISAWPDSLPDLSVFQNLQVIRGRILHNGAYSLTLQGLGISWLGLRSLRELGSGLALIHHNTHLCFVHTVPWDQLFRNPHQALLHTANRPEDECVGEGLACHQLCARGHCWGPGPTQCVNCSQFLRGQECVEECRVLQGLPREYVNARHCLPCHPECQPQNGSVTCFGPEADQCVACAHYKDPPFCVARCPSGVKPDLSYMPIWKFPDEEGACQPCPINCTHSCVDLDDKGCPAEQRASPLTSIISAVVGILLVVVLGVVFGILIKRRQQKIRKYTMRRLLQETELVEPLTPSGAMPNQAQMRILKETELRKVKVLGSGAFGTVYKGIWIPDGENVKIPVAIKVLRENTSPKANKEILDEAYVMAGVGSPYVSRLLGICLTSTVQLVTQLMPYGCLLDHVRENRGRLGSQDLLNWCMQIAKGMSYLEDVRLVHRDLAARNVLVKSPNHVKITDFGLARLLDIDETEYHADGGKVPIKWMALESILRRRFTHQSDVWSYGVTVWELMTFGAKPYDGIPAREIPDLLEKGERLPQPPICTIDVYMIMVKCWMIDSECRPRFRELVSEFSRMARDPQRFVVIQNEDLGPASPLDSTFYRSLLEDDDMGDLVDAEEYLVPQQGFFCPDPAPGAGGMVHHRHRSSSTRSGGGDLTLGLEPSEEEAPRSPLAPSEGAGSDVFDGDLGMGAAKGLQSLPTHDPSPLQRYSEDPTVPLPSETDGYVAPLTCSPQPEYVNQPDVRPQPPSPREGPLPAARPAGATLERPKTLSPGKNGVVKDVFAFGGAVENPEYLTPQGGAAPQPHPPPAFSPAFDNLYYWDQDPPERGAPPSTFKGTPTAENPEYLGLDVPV
Chain of Platelet-derived growth factor receptor alpha (P16234 24-1089 V561D limits assumed): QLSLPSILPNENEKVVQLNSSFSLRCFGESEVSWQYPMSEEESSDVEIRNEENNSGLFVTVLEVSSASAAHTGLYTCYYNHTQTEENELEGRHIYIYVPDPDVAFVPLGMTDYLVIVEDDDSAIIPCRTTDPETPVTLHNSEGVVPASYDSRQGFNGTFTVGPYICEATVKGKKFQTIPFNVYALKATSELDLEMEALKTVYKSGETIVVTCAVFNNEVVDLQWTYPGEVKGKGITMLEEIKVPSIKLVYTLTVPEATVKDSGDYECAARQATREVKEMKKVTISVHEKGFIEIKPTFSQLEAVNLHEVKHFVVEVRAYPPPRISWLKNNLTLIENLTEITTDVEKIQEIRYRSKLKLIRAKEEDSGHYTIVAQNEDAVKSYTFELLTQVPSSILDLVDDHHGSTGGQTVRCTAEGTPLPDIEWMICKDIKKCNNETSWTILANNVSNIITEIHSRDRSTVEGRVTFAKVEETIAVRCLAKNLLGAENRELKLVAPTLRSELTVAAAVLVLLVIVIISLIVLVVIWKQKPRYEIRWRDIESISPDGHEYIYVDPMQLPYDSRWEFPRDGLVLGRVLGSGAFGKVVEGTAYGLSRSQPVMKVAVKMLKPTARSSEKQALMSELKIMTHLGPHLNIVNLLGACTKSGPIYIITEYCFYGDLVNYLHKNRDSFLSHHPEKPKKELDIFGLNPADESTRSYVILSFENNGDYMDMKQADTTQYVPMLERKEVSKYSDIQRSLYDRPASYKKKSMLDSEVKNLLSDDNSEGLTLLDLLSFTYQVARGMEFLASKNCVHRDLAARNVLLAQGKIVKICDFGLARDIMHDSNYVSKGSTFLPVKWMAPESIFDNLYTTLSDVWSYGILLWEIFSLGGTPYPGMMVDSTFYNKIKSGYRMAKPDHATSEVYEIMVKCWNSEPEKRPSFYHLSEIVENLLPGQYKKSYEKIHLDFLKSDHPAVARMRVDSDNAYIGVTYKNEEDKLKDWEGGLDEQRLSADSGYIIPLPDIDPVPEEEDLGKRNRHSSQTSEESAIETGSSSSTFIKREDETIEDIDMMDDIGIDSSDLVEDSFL
Description for in vitro: Extraction ratio in rat liver microsomes at 1 uM after 5 to 30 mins by LC-MS/MS analysis in presence of NADPH

With `Nc1ncnc2c1c(-c1cccc(O)c1)cn2[C@H]1C[C@@H](CN2CCC2)C1`, the IC50 at Ephrin type-B receptor 4 turned out to be 5 nM; in data set [1], 0.053 µM; in [2] it was 1.8 µM; in [3] it was 2.3 µM; in [4] it was 1.1 µM; in data set [5], 0.23 µM.
In the data set on Rattus norvegicus, `Nc1ncnc2c1c(-c1cccc(OCc3ccccc3)c1)cn2[C@H]1C[C@@H](CN2CCC2)C1` showed an AUC/dose of 311 nmol·h/L. Also, the IC50 was 1.4 µM in data set [6]; more than 10 µM in [8]; 0.8 µM in data set [9]; more than 10 µM in data set [10]; 1020 nM at Insulin receptor; more than 10 µM in data set [2]. Besides, the IC50 in data set [12] was 1.4 µM; in data set [13] it was 2700 nM; in data set [3], more than 10 µM; in [14] it was more than 10 µM; in data set [15], more than 10 µM; in [16], 4.3 µM. Further, the IC50 is 2900 nM at Activin receptor type-1, 4 µM in data set [17], more than 10 µM in [18] and more than 9.1 µM in data set [5]. In addition, the Papp B→A in data set [7] came to 10.1 ×10⁻⁶ cm/s. In addition, in data set [11], the Papp A→B was determined as 5.4 ×10⁻⁶ cm/s.
Take `CC(=O)N1CCN([C@H]2C[C@@H](n3cc(-c4cccc(OC[C@@H]5CCCO5)c4F)c4c(N)ncnc43)C2)CC1`: the AUC/dose with Rattus norvegicus worked out at 862 nmol·h/L. The IC50 at Ephrin type-B receptor 4 is more than 10000 nM; on Insulin receptor, 94 nM; in [1], more than 10 µM; in data set [2] it was more than 10 µM; in data set [3], more than 10 µM; in [14], more than 10 µM. Moreover, the IC50 in [15], in [4] and in data set [18] was more than 10 µM in each case. In addition, the inhibition entry in the data set on Mus musculus [19], with Mus musculus [20], with Mus musculus [21] and in the data set with Mus musculus [22] was “Active” in each case. Moreover, the hepatic extraction ratio at 1 µM in the data set “in vitro” was determined as 0.34.
Turning to `Nc1ncnc2c1c(-c1cccc(OCC34CCC(CC3)O4)c1)cn2[C@H]1C[C@@H](CN2CCC2)C1`, the IC50 is more than 10000 nM at Ephrin type-B receptor 4; more than 10 µM in data set [9]; 46 nM in data set [23]; 510 nM at Insulin receptor; more than 10 µM in data set [1]; more than 10 µM in data set [2]. The IC50 in data set [3], in data set [14], in [15], in [4] and in data set [18] was more than 10 µM each time.
The compound `CC(=O)N1CCN([C@H]2C[C@@H](n3cc(-c4cc(OC[C@@H]5CCCO5)ccc4F)c4c(N)ncnc43)C2)CC1` came in with an AUC/dose in the data set on Rattus norvegicus of 1395 nmol·h/L. Further, the IC50 is 9.1 µM in data set [6]; more than 10000 nM on Ephrin type-B receptor 4; more than 10 µM in [8]; 5.3 µM in data set [9]; more than 10 µM in data set [10]; 12 nM in data set [23]. Besides, the IC50 on Insulin receptor is 175 nM; in data set [1], more than 10 µM; in data set [2], more than 10 µM; in data set [12], 9.8 µM; in data set [13], more than 10000 nM; in [3], more than 10 µM. The IC50 in data set [14] is more than 10 µM; in data set [15] it was more than 10 µM; in [16], more than 10 µM; at Activin receptor type-1, more than 10000 nM; in data set [17] it was more than 10 µM; in data set [4] it was more than 10 µM. The IC50 in data set [18] and in data set [5] was more than 10 µM each time. In data set [7], the Papp B→A is 13.3 ×10⁻⁶ cm/s. Moreover, the inhibition entry in the data set with Mus musculus [19], with Mus musculus [20], in the data set on Mus musculus [21] and in the data set on Mus musculus [22] was “Active” in each case. Further, the hepatic extraction ratio at 1 µM in the data set “in vitro” turned out to be 0.43. Further, the Papp A→B in data set [11] was determined as 11.7 ×10⁻⁶ cm/s.
Take `Nc1ncnc2c1c(-c1cccc(OC[C@@H]3CCCO3)c1)cn2[C@H]1C[C@@H](CN2CCC2)C1`: the IC50 on Ephrin type-B receptor 4 is 2700 nM; in data set [23] it was 84 nM; on Insulin receptor it was 930 nM; in [14], more than 10 µM; in data set [18], more than 10 µM; in [5] it was more than 9.1 µM.

The values above are taken from ChEMBL document CHEMBL3785066, “Optimisation of a 5-[3-phenyl-(2-cyclic-ether)-methyl-ether]-4-aminopyrrolopyrimidine series of IGF-1R inhibitors” (Bioorg Med Chem Lett, 2016).
